Among the test systems are SK-OV-3 ovarian; IGROV1 ovarian; HL-60(TB) leukemia; SK-MEL-28 melanoma; SF-539 CNS; 786-0 renal; ACHN renal; HCT-116 colon; NCI-H226 lung; RXF 393 renal.
Common to all, as to test: growth of human tumour cells (NCI), 48 h

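Growth conditions: 96-well plates. Treatment: test compound, 48 hours, 5 concentrations. Analysis: linear interpolation between bracketing concentrations; unreached endpoints set to highest concentration. Abbreviation: GI50, concentration required for 50% inhibition of growth. TGI: total growth inhibition.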 Bounds are passed on as bounds.

As for `C=CC(=O)N1CCCC(n2nc(-c3ccc(Oc4ccccc4)cc3)c3c(N)ncnc32)C1` (centres undefined), the GI50 with SK-OV-3 ovarian was 0.0216 µM; in the test on IGROV1 ovarian, 0.643 µM; in the test on HL-60(TB) leukemia, 21.9 µM; with SK-MEL-28 melanoma, 12.3 µM; in the test on SF-539 CNS it was 6.73 µM; with 786-0 renal, 1.86 µM. The GI50 in the test with ACHN renal is 0.248 µM; in the test with HCT-116 colon it was 11.9 µM; in the test with NCI-H226 lung it was 3.97 µM; with RXF 393 renal, 2.68 µM. Also, the TGI worked out at 15.8 µM with SK-OV-3 ovarian; 14.6 µM with IGROV1 ovarian; 44.5 µM in the test on HL-60(TB) leukemia; 25 µM in the test with SK-MEL-28 melanoma; 21 µM in the test with SF-539 CNS; 16.6 µM with 786-0 renal. For the same compound, the TGI in the test on ACHN renal was found to be 15.8 µM; with HCT-116 colon it was 26.2 µM; in the test on NCI-H226 lung it was 19.3 µM; in the test with RXF 393 renal it was 11.4 µM.

`CC1=CSC2=NC(c3ccc(Cl)c(Cl)c3)=CC(c3ccc(Cl)cc3)N12` (centres undefined): the GI50 with SK-OV-3 ovarian, with IGROV1 ovarian, in the test on HL-60(TB) leukemia, in the test with SK-MEL-28 melanoma, in the test on SF-539 CNS and in the test with 786-0 renal was > 100 µM throughout. Moreover, the GI50 in the test with ACHN renal, in the test with HCT-116 colon, with NCI-H226 lung and in the test on RXF 393 renal was > 100 µM in each case. The TGI in the test with SK-OV-3 ovarian, with IGROV1 ovarian, in the test with HL-60(TB) leukemia, in the test with SK-MEL-28 melanoma, with SF-539 CNS and with 786-0 renal was > 100 µM in each case. Moreover, the TGI with ACHN renal, with HCT-116 colon, in the test on NCI-H226 lung and in the test on RXF 393 renal was > 100 µM in each case.

With `Nc1nc(-c2cccc([N+](=O)[O-])c2)c(Br)c(=O)[nH]1`, the TGI is > 100 µM with SK-OV-3 ovarian; > 100 µM in the test on IGROV1 ovarian; > 100 µM in the test on HL-60(TB) leukemia; > 100 µM in the test with SK-MEL-28 melanoma; > 82 µM in the test on SF-539 CNS; > 100 µM with 786-0 renal. Moreover, the TGI in the test on ACHN renal, in the test on HCT-116 colon, in the test on NCI-H226 lung and in the test on RXF 393 renal was > 100 µM in each case.

For `COC1=CC23C=CC1[C@@H](c1ccccc1)C2=C(C)C(=O)N3C(=O)NC1CCCCC1` (some centres undefined), the TGI was 93.5 µM in the test with SK-OV-3 ovarian; > 100 µM in the test with IGROV1 ovarian; > 100 µM with HL-60(TB) leukemia; 42.2 µM in the test on SK-MEL-28 melanoma; 39.2 µM in the test on SF-539 CNS; 32.4 µM with 786-0 renal. Besides, the TGI in the test on ACHN renal was > 100 µM; in the test with HCT-116 colon, 28.3 µM; in the test with NCI-H226 lung it was 46.6 µM; in the test with RXF 393 renal, 14.8 µM.

Regarding `CCOC(=O)[C@@H](C)C[C@H](Cc1ccccc1)NC(=O)c1csc([C@@H](C[C@H](C(C)C)N(C)C(=O)[C@@H](NC(=O)[C@H]2C[C@H](O[Si](C)(C)C(C)(C)C)CCN2C)C(C)C)OC(C)=O)n1`, the GI50 with SK-OV-3 ovarian is 0.198 µM; with IGROV1 ovarian, 0.272 µM; with HL-60(TB) leukemia, 0.249 µM; with SK-MEL-28 melanoma, 0.491 µM; in the test on SF-539 CNS, 0.21 µM; with 786-0 renal, 0.286 µM. In addition, the GI50 with ACHN renal is 0.427 µM; in the test with HCT-116 colon, 0.246 µM; in the test on NCI-H226 lung it was 0.493 µM; in the test on RXF 393 renal, 0.159 µM. The TGI in the test with SK-OV-3 ovarian is > 8.33 µM; in the test on IGROV1 ovarian, > 8.33 µM; with HL-60(TB) leukemia, 0.896 µM; with SK-MEL-28 melanoma, > 8.33 µM; in the test on SF-539 CNS, 0.625 µM; with 786-0 renal it was > 4.36 µM. Further, the TGI was > 8.33 µM with ACHN renal, 1.63 µM with HCT-116 colon, > 4.18 µM with NCI-H226 lung and 0.481 µM in the test with RXF 393 renal.

On to `NC(N)=N/N=C(/c1nc2ccc([N+](=O)[O-])cc2[nH]c1=O)C(O)c1ccco1` (centres undefined), for which the TGI in the test with SK-OV-3 ovarian, with IGROV1 ovarian, with HL-60(TB) leukemia, in the test with SK-MEL-28 melanoma, with SF-539 CNS and with 786-0 renal was > 100 µM in each case. The TGI in the test with ACHN renal, with HCT-116 colon, in the test with NCI-H226 lung and in the test on RXF 393 renal was > 100 µM in each case.

For `CC(C)c1ccc(Cc2cnc(NC(=O)c3cc(Br)cs3)s2)cc1`, the GI50 with SK-OV-3 ovarian was 6.06 µM; in the test on IGROV1 ovarian it was 3.7 µM; with HL-60(TB) leukemia, 3.6 µM; with SK-MEL-28 melanoma, 5.41 µM; in the test with SF-539 CNS, 2.04 µM; with 786-0 renal, 4.55 µM. The GI50 in the test with ACHN renal is 4.64 µM; in the test on HCT-116 colon, 2.98 µM; in the test on NCI-H226 lung it was 5.68 µM; in the test with RXF 393 renal, 1.75 µM. For the same compound, the TGI is 95.7 µM in the test on SK-OV-3 ovarian; > 100 µM with IGROV1 ovarian; > 100 µM in the test on HL-60(TB) leukemia; > 100 µM in the test with SK-MEL-28 melanoma; 5.64 µM with SF-539 CNS; > 100 µM with 786-0 renal. The TGI is > 100 µM with ACHN renal, > 100 µM in the test on HCT-116 colon, > 100 µM with NCI-H226 lung and 5.97 µM with RXF 393 renal.

Turning to `Clc1nc(Oc2ccccc2)nc(-c2cn(-c3ccccc3)c3ccccc23)n1`, the GI50 in the test with SK-OV-3 ovarian was 18.9 µM; in the test with IGROV1 ovarian, 2.45 µM; in the test with HL-60(TB) leukemia it was 0.773 µM; in the test on SK-MEL-28 melanoma, 3.92 µM; in the test with SF-539 CNS, 16.1 µM; in the test with 786-0 renal, 18.6 µM. Moreover, the GI50 with ACHN renal was 8.16 µM; with HCT-116 colon, 3.64 µM; in the test on NCI-H226 lung, 33.5 µM; with RXF 393 renal, 3.8 µM. The TGI amounted to 40.3 µM in the test on SK-OV-3 ovarian; 6.26 µM in the test with IGROV1 ovarian; 12.1 µM in the test on SK-MEL-28 melanoma; 30 µM with SF-539 CNS; 35.6 µM with 786-0 renal; 21.1 µM with ACHN renal. The TGI in the test on HCT-116 colon is 11.8 µM; in the test on NCI-H226 lung, > 62.2 µM; with RXF 393 renal it was 10.7 µM.

Take `CC1(C)C2CC(c3ccncc3)ON2C(C)(C)N1O` (centres undefined): the TGI with SK-OV-3 ovarian, in the test on IGROV1 ovarian, with HL-60(TB) leukemia, in the test on SK-MEL-28 melanoma, with SF-539 CNS and in the test with 786-0 renal was > 100 µM in each case. Also, the TGI in the test with ACHN renal, with HCT-116 colon, in the test with NCI-H226 lung and with RXF 393 renal was > 100 µM in each case.
